Measurements from US6875761B2 (Eisai Co., Ltd., priority 1997, dated 2005).
Counter-ions that a name gives are not always drawn. Like-named read-outs stand apart in the source and are kept apart here.

Columns and labels:
serotonin 1A receptor = target: T1, serotonin 1A receptor (Rattus norvegicus, UniProt P19327); assay: Binding test on [3H] 8-hydroxy-dipropylaminotetralin, hippocampus receptor fraction; design: species or system SD rats
T1 construct: To the receptor fraction of the hippocampus were added a test compound and 0.5 nM of [^3H]; 8-hydroxy-dipropylaminotetralin; from tissue; host or cells: rat hippocampus membrane fraction
T1 sequence (P19327 1-422): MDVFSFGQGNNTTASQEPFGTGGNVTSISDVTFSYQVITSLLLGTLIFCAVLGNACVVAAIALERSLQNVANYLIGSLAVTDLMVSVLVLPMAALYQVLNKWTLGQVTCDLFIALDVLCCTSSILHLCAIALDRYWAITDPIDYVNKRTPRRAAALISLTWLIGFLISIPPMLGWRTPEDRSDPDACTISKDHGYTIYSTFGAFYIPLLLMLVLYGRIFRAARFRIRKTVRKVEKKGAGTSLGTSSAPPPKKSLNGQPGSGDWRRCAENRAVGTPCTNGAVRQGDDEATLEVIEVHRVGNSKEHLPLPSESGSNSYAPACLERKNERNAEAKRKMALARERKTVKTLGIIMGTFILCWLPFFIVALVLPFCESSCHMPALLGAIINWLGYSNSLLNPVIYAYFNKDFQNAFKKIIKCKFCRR

serotonin 2 receptor = target: T2, serotonin 2 receptor (Rattus norvegicus, UniProt P14842); assay: Binding test on [3H] ketanserin, cerebral cortex receptor fraction; design: species or system SD rats; details: 0.3 nM [3H] ketanserin, 37° C. 15 min, read-out: 5HT2
T2 construct: To the receptor fraction of the cerebral cortex were added a test compound and 0.3 nM of [^3H] ketanserin; from tissue; host or cells: rat cerebral cortex membrane fraction
T2 sequence (P14842 whole entry): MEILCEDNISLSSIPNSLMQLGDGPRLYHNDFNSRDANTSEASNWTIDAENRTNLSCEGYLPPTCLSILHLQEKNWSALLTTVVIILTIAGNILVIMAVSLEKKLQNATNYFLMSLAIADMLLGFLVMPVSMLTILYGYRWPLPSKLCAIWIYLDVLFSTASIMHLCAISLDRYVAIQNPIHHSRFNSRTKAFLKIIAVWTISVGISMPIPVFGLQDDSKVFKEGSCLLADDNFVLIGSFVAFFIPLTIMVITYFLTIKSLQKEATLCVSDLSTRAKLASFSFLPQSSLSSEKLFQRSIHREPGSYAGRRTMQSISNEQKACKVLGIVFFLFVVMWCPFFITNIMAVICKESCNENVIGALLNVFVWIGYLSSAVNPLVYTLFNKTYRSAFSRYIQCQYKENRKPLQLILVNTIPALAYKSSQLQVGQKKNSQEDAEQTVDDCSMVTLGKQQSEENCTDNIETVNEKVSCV

[1] = rat hippocampus receptor fraction, 0.5 nM [3H] 8-OH-DPAT, room temperature 30 min, read-out: 5HT1

| Ki (serotonin 1A receptor; [1]) | Ki (serotonin 2 receptor) | SMILES | Ki (serotonin 1A receptor) |
| --- | --- | --- | --- |
| 8.64 nM | 26 nM | CCN1CCN(c2nc(-c3ccc(CC(C)O)cc3)cc3ccsc23)CC1 (stereo not shown) [Example 436, 7-(4-ethylpiperazin-1-yl)-5-[4-(2-hydroxypropyl)phenyl]thieno[2,3-c]pyridine dihydrochloride] |  |
| 28.5 nM | 16.5 nM | CCN1CCN(c2nc(-c3ccc(CC(C)(C)O)cc3)cc3ccccc23)CC1 [Example 377, 1-(4-Ethylpiperazin-1-yl)-3-[4-(2-Hydroxy-2-Methylpropyl)Phenyl]Isoquinoline Oxalate] |  |
| 1.6 nM | 8.8 nM | CCN1CCN(c2nc(-c3ccc(N4CCC(CO)CC4)nc3)cc3ccccc23)CC1 [Example 154, 1-(4-ethylpiperazin-1-yl)-3-[2-(4-hydroxymethylpiperidin-1-yl)pyridin-5-yl]isoquinoline trihydrochloride] |  |
| 2 nM | 1.5 nM | CCN1CCN(c2nc(-c3ccc(NS(=O)(=O)CC)cc3)cc3ccccc23)CC1 [Example 71, 3-(4-Ethylsulfonylaminophenyl)-1-(4-Ethylpiperazin-1-Yl)Isoquinoline Hydrochloride] |  |
| 129 nM | 1.11 nM | CCN1CCN(c2nc(-c3ccc(OCCO)cc3)cc3cccc(F)c23)CC1 [Example 234, 1-(1-ethylpiperazin-4-yl)-8-fluoro-3-[4-(2-hydroxyethoxy)phenyl]isoquinoline dihydrochloride] |  |
| 4.4 nM | 10.2 nM | CCN1CCN(c2nc(C#CC(O)c3ccccc3)cc3ccccc23)CC1 (stereo not shown) [Example 310, 1-(1-ethylpiperazin-4-yl)-3-(3-phenyl-3-hydroxy-1-propynyl)isoquinoline hydrochloride] |  |
| 20 nM | 4.34 nM | CCN1CCN(c2nc(-c3ccc(C4=CCOCC4)nc3)cc3ccccc23)CC1 [Example 155, 3-[2-(5,6-dihydro-2H-pyran-4-yl)pyridin-5-yl]-1-(4-ethylpiperazin-1-yl)isoquinoline oxalate] |  |
| 2.99 nM | 5.92 nM | CCN1CCN(c2nc(CNc3ccc(OC)cc3)cc3ccccc23)CC1 [Example 219, 1-(1-ethylpiperazin-4-yl)-3-(4-methoxyanilinomethyl)isoquinoline oxalate] |  |
| 0.53 nM | 44.4 nM | CCN1CCN(c2nc(-c3ccc(O[C@@H](C)CO)cc3)cc3ccoc23)CC1 [Example 303, 7-(1-ethylpiperazin-4-yl)-5-{4-[(S)-2-hydroxy-1-methylethoxy]phenyl}furo[2,3-c]pyridine dihydrochloride] |  |
| 1.72 nM | 5.37 nM | CCN1CCN(c2nc(-c3cccc(OCCO)c3)cc3ccoc23)CC1 [Example 298, 7-(1-ethylpiperazin-4-yl)-5-[3-(2-hydroxyethoxy)phenyl]furo[2,3-c]pyridine dihydrochloride] |  |
| 214 nM | 18.9 nM | CCN1CCN(c2nc(-c3ccc(OC(F)(F)F)cc3)cc3ccccc23)CC1 [Example 339, 1-(4-ethylpiperazin-1-yl)-3-(4-trifluoromethoxyphenyl)isoquinoline dihydrochloride] |  |
| 43 nM | 30.3 nM | CCN1CCN(c2nc(-c3ccc(C4=CCC(O)CC4)cc3)cc3ccsc23)CC1 (stereo not shown) [Example 270, 5-[4-(4-hydroxycyclohexen-1-yl)phenyl]-7-(4-ethylpiperazin-1-yl)thieno[2,3-c]pyridine hydrochloride] |  |
| 51.4 nM | 9.11 nM | CCN1CCN(c2nc(-c3ccc(C(=O)NC4CCCCC4)cc3)cc3ccsc23)CC1 [Example 273, dihydrochloride] |  |
| 103 nM | 1.87 nM | CCN1CCN(c2nc(-c3ccc(OCC#N)cc3)cc3ccccc23)CC1 [Example 51, 3-(4-Cyanomethoxyphenyl)-1-(4-Ethylpiperazin-1-Yl)Isoquinoline Hydrochloride] |  |
| 10.8 nM | 56.7 nM | CCN1CCN(c2nc(-c3ccc(CN4CCOCC4)cc3)cc3ccccc23)CC1 [Example 93, 3-(4-Morpholinylmethylphenyl)-1-(4-ethylpiperazin-1-yl)isoquinoline Hydrochloride] |  |
| 200 nM | 1.97 nM | CCN1CCN(c2nc(-c3ccc(OC)cc3)cc3cccc(F)c23)CC1 [Example 233, 1-(1-ethylpiperazin-4-yl)-8-fluoro-3-(4-methoxyphenyl)isoquinoline dihydrochloride] |  |

| Ki (serotonin 1A receptor; [1]) | Ki (serotonin 2 receptor) | SMILES | Ki (serotonin 1A receptor) |
| --- | --- | --- | --- |
| 23.2 nM | 2.66 nM | CCN1CCN(c2nc(-c3ccc(CC(C)(C)CO)cc3)cc3ccsc23)CC1 [Example 442, 7-(4-ethylpiperazin-1-yl)-5-[4-(3-hydroxy-2,2-dimethylpropyl)phenyl]thieno[2,3-c]pyridine dihydrochloride] |  |
| 11 nM | 1.6 nM | CCN1CCN(c2nc(-c3ccc(C(C)O)cc3)cc3ccccc23)CC1 (stereo not shown) [Example 348, 1-(4-ethylpiperazin-1-yl)-3-[4-(1-hydroxyethyl)phenyl]isoquinoline dihydrochloride] |  |
| 9.04 nM | 0.25 nM | CCN1CCN(c2nc(-c3ccc(CCCO)c(C#N)c3)cc3ccsc23)CC1 [Example 262, 5-[4-(3-hydroxypropyl)-3-cyanophenyl]-7-(4-ethylpiperazin-1-yl)thieno[2,3-c]pyridine Oxalate] |  |
| 15.6 nM | 7.59 nM | CCN1CCN(c2nc(/C=C/c3ccc(N4CCOCC4)nn3)cc3ccccc23)CC1 [Example 214, 3-{(E)-2-[3-(4-Morpholinyl)Pyridazin-6-Yl]Ethenyl}-1-(4-Ethylpiperazin-1-Yl)Isoquinoline Oxalate] |  |
| 57.2 nM | 4.6 nM | CCN1CCN(c2nc(-c3ccc(OCCCc4ccncc4)cc3)cc3ccccc23)CC1 [Example 57, 3-{4-[3-(4-Pyridyl)Propoxy]Phenyl}-1-(4-Ethylpiperazin-1-Yl)Isoquinoline Hydrochloride] |  |
| 6.1 nM | 3.2 nM | CCN1CCN(c2nc(-c3ccc(S(=O)(=O)N(CC)CC)cc3)cc3ccccc23)CC1 [Example 359, 1-(4-ethylpiperazin-1-yl)-3-[4-(N,N-diethylsulfamoyl)phenyl]isoquinoline dihydrochloride] |  |
| 41.3 nM | 4.61 nM | CCN1CCN(c2nc(-c3ccc(OCCO)cc3)cc3cscc23)CC1 [Example 278, 4-(4-ethylpiperazin-1-yl)-6-[4-(2-hydroxyethoxy)phenyl]thieno-[3,4-c]pyridine oxalate] |  |
| 10.3 nM | 89.9 nM | CCN1CCN(c2nc(C(=O)c3ccccc3OC)cc3ccccc23)CC1 [Example 111, 3-(2-Methoxyphenylcarbonyl)-1-(4-ethylpiperazin-1-yl)isoquinoline Oxalate] |  |
| 25 nM | 29 nM | CN(C)CCC=C1c2ccccc2C=Cc2ccccc21 [Cyclobenzaprine, cyclobenzaprine hydrochloride, reference compound] |  |
| 29.7 nM | 4.9 nM | CCN1CCN(c2nc(-c3ccc(OCCCc4cccnc4)cc3)cc3ccccc23)CC1 [Example 157, 3-[4-[3-(3-pyridyl)propoxy]phenyl]-1-(4-ethylpiperazin-1-yl)isoquinoline hydrochloride] |  |
| 11.1 nM | 26.8 nM | CCN1CCN(c2nc(-c3ccc(CO)cc3)cc3ccccc23)CC1 [Example 17, 1-(4-ethylpiperazin-1-yl)-3-(4-hydroxymethylphenyl)isoquinoline hydrochloride] |  |
| 12.2 nM | 30 nM | CCCC(O)c1ccc(-c2cc3ccsc3c(N3CCN(CC)CC3)n2)cc1 (stereo not shown) [Example 446, 7-(4-ethylpiperazin-1-yl)-5-[4-(1-hydroxybutyl)phenyl]thieno[2,3-c]pyridine dihydrochloride] |  |
| 53 nM | 17.2 nM | CCN1CCN(c2nc(-c3ccc(CC4CCOCC4)cc3)cc3ccccc23)CC1 [Example 399, 1-(4-Ethylpiperazin-1-yl)-3-[4-(tetrahydropyran-4-yl)Methylphenyl]Isoquinoline Dihydrochloride] |  |
| 40.1 nM | 19.9 nM | CCN1CCN(c2nc(-c3ccc4c(c3)CC(CO)CO4)cc3ccccc23)CC1 (stereo not shown) [Example 122, 3-(3-Hydroxymethylchroman-6-yl)-1-(4-Ethylpiperazin-1-yl)Isoquinoline Hydrochloride] |  |
| 71.4 nM | 52.1 nM | CCN1CCN(c2nc(-c3ccc(OC)cc3)cc3cscc23)CC1 [Example 277, 4-(4-ethylpiperazin-1-yl)-6-(4-methoxyphenyl)thieno[3,4-c]pyridine oxalate] |  |
| 26.2 nM | 9.9 nM | CCN1CCN(c2nc(-c3ccc(C(=O)NC)cc3)cc3ccccc23)CC1 [Example 365, 1-(4-ethylpiperazin-1-yl)-3-[4-(N-methylcarbamoyl)phenyl]isoquinoline dihydrochloride] |  |

| SMILES | Ki (serotonin 1A receptor; [1]) | Ki (serotonin 2 receptor) | Ki (serotonin 1A receptor) |
| --- | --- | --- | --- |
| CCNC(=O)Oc1ccc(-c2cc3ccccc3c(N3CCN(CC)CC3)n2)cc1 [Example 59] |  | 14.3 nM | 16.3 nM |
| CCCCc1ccc(-c2cc3ccccc3c(N3CCN(CC)CC3)n2)cn1 [Example 131, 1-(1-Ethylpiperazin-4-yl)-3-(2-Butylpyridin-5-yl)Isoquinoline] | 6.4 nM | 5.8 nM |  |
| CCN1CCN(c2nc(-c3cc(F)c(OCCO)c(F)c3)cc3ccccc23)CC1 [Example 370, 1-(4-ethylpiperazin-1-yl)-3-[3,5-difluoro-4-(2-hydroxyethoxy)phenyl]isoquinoline] | 23.9 nM | 3.4 nM |  |
